Test results as given in patent US9108957B2 (MITSUBISHI TANABE PHARMA CORPORATION, priority 2009, dated 2015).

Target: human recombinant TPK1 (Homo sapiens, UniProt P49841)
Assay: Inhibitory activity against P-GS1 phosphorylation by TPK1 (Kinase Glo luminescence)
Format: biochemical
Details: 7.5 μM P-GS1, 10 μM ATP, 25° C. for 16 hours, Kinase Glo Reagent luminescent signal
Summary of the method: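 Human recombinant TPK1 phosphorylated 7.5 μM P-GS1 with 10 μM ATP in 100 mM HEPES-NaOH pH 7.2 with Mg, EGTA, DTT, Tween 20 and 1% DMSO final, for 16 h at 25° C. Remaining ATP was read by Kinase Glo luminescence. IC50 was normalised to no-enzyme (0%) and no-compound (100%) controls.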

Sequence of human recombinant TPK1 (P49841 whole entry): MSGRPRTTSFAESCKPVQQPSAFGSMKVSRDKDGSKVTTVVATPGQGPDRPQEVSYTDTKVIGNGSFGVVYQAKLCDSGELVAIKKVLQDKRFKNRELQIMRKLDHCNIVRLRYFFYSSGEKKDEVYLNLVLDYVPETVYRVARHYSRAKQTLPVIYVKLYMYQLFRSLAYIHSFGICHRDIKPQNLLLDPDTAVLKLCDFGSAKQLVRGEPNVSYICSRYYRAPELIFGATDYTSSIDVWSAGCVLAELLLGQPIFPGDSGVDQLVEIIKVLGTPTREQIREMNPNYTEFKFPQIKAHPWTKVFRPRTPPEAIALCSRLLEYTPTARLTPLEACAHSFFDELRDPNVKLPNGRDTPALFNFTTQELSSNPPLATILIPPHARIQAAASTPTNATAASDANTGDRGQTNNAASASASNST

Compound | IC50
Cn1c(N2CCCO[C@H](c3ccc(C(N)=O)cc3)C2)nc(-c2ccncc2)cc1=O [Compound A062, (R)-2-[2-(4-aminocarbonylphenyl)-1,4-oxazepan-4-yl]-3-methyl-6-(pyridin-4-yl)pyrimidin-4(3H)-one] | 809 nM
Cc1nc(-c2cccc([C@H]3CN(c4nc(-c5ccncc5)cc(=O)n4C)CCCO3)c2)no1 [Compound A042, (S)-2-[2-[3-(5-methyl-1,2,4-oxadiazol-3-yl)-phenyl]-1,4-oxazepan-4-yl]-3-methyl-6-(pyridin-4-yl)pyrimidin-4(3H)-one] | 44.6 nM
Cn1c(N2CCCOCC2)nc(-c2ccncn2)cc1=O [Compound A002, 2-(1,4-oxazepan-4-yl)-3-methyl-6-(pyrimidin-4-yl)pyrimidin-4(3H)-one] | 232 nM
Cn1c(N2CCCO[C@H](c3ccc(C(N)=O)cc3)C2)nc(-c2ccncn2)cc1=O [Compound A060, (R)-2-[2-(4-aminocarbonylphenyl)-1,4-oxazepan-4-yl]-3-methyl-6-(pyrimidin-4-yl)pyrimidin-4(3H)-one] | 252 nM
CC1CN(c2nc(-c3ccncc3F)cc(=O)n2C)CCCO1 (centres unmarked) [Compound A041, 2-(2-methyl-1,4-oxazepan-4-yl)-6-(3-fluoropyridin-4-yl)-3-methylpyrimidin-4(3H)-one] | 34.8 nM
Cn1c(N2CCCO[C@@H](c3cccc(C#N)c3)C2)nc(-c2ccncn2)cc1=O [Compound A039, (S)-2-[2-(3-cyanophenyl)-1,4-oxazepan-4-yl]-3-methyl-6-(pyrimidin-4-yl)pyrimidin-4(3H)-one] | 31.9 nM
CCC1CCOCCN1c1nc(-c2ccncc2F)cc(=O)n1C (centres unmarked) [Compound A072, 6-(3-fluoropyridin-4-yl)-3-methyl-2-(5-ethyl-1,4-oxazepan-4-yl)pyrimidin-4(3H)-one] | 65 nM
Cn1c(N2CCCOC(c3ccccc3)C2)nc(-c2ccncc2)cc1=O (centres unmarked) [Compound A040, 2-(2-phenyl-1,4-oxazepan-4-yl)-3-methyl-6-(pyridin-4-yl)pyrimidin-4(3H)-one] | 32.7 nM

Compounds with a lower IC50, results first:

IC50 | Compound
30 nM | Cc1noc(-c2ccc(C3CCN(c4nc(-c5ccncc5F)cc(=O)n4C)CCO3)cc2)n1 (single isomer, unassigned; (-)) [Compound A113, (−)-2-[7-[4-(3-methyl-1,2,4-oxadiazol-5-yl)-phenyl]-1,4-oxazepan-4-yl]-6-(3-fluoropyridin-4-yl)-3-methylpyrimidin-4(3H)-one]
28 nM | COc1cccc(C2CCN(c3nc(-c4ccncc4)cc(=O)n3C)CCO2)c1 (centres unmarked) [Compound A109, 2-[7-(3-methoxyphenyl)-1,4-oxazepan-4-yl]-3-methyl-6-(pyridin-4-yl)pyrimidin-4(3H)-one]
19.8 nM | Cc1nc(-c2cccc([C@H]3CN(c4nc(-c5ccncn5)cc(=O)n4C)CCCO3)c2)no1 [Compound A030, (S)-2-[2-[3-(5-methyl-1,2,4-oxadiazol-3-yl)-phenyl]-1,4-oxazepan-4-yl]-3-methyl-6-(pyrimidin-4-yl)pyrimidin-4(3H)-one]
17.6 nM | Cn1c(N2CCCO[C@@H](c3ccc(C#N)cc3)C2)nc(-c2ccncn2)cc1=O [Compound A028, (S)-2-[2-(4-cyanophenyl)-1,4-oxazepan-4-yl]-3-methyl-6-(pyrimidin-4-yl)pyrimidin-4(3H)-one]
16.7 nM | Cc1nc(-c2ccc([C@@H]3COCCN(c4nc(-c5ccncn5)cc(=O)n4C)C3)cc2)no1 [Compound A085, (S)-2-[6-[4-(5-methyl-1,2,4-oxadiazol-3-yl)-phenyl]-1,4-oxazepan-4-yl]-3-methyl-6-(pyrimidin-4-yl)pyrimidin-4(3H)-one]
15 nM | CC1COCCN(c2nc(-c3ccncc3F)cc(=O)n2C)C1 (centres unmarked) [Compound A084, 2-(6-methyl-1,4-oxazepan-4-yl)-6-(3-fluoropyridin-4-yl)-3-methylpyrimidin-4(3H)-one]
10.8 nM | Cn1c(N2CCOC(c3ccc(Br)cc3)CC2)nc(-c2ccncn2)cc1=O (single isomer, unassigned; (+)) [Compound A096, (+)-2-[7-(4-bromophenyl)-1,4-oxazepan-4-yl]-3-methyl-6-(pyrimidin-4-yl)pyrimidin-4(3H)-one]
10.3 nM | Cc1nc(-c2cccc([C@H]3CN(c4nc(-c5ccncc5F)cc(=O)n4C)CCCO3)c2)no1 [Compound A016, (S)-2-[2-[3-(5-methyl-1,2,4-oxadiazol-3-yl)-phenyl]-1,4-oxazepan-4-yl]-6-(3-fluoropyridin-4-yl)-3-methylpyrimidin-4(3H)-one]
6 nM | Cn1c(N2CCCO[C@@H](c3ccc(F)cc3)C2)nc(-c2ccncc2F)cc1=O [Compound A011, (S)-2-[2-(4-fluorophenyl)-1,4-oxazepan-4-yl]-6-(3-fluoropyridin-4-yl)-3-methylpyrimidin-4(3H)-one]
